# Source: patent publication US20190365784A1, “USE OF BRASSINOSTEROID ANALOGS FOR THE TREATMENT OF DERMAL DISORDERS BY SELECTIVELY MODULATING LIVER X RECEPTORS (LXR) AND DERMAL DISEASE TREATMENT BY BRASSINOSTEROID ANALOGS ACTING AS SELECTIVE LIVER X RECEPTOR (LXR) MODULATORS” (CONSEJO NACIONAL DE INVESTIGACIONES CIENTÍFICAS Y TÉCNICAS …, priority 2015, published 2019)
# Columns and labels:
# ABCA1 = ABCA1 expression in HepG2 cells (real time PCR); format: cell-based, human; conditions: 1 uM, 3 uM and 10 uM, 6 h
# LXR-alpha [1] = biological target: T1, LXR-alpha (Homo sapiens, UniProt Q13133); assay: LXR-alpha/RXR LRE-luciferase reporter in transfected HEK293T cells; format: cell-based; conditions: 10 uM, 18 h
# T1 sequence (Q13133 1-447): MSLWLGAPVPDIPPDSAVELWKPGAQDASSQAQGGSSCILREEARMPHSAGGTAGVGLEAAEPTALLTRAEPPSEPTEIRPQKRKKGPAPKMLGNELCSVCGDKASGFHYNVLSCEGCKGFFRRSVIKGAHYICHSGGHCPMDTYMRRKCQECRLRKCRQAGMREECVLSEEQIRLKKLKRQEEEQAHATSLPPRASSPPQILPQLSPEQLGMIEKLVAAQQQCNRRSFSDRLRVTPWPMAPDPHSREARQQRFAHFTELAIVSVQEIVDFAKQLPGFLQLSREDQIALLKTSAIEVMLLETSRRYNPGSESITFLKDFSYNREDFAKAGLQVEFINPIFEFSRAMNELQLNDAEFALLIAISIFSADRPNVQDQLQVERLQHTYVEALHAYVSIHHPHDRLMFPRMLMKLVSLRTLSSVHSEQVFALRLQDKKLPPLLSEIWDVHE
# T1 sequence (P19793 1-462 partner): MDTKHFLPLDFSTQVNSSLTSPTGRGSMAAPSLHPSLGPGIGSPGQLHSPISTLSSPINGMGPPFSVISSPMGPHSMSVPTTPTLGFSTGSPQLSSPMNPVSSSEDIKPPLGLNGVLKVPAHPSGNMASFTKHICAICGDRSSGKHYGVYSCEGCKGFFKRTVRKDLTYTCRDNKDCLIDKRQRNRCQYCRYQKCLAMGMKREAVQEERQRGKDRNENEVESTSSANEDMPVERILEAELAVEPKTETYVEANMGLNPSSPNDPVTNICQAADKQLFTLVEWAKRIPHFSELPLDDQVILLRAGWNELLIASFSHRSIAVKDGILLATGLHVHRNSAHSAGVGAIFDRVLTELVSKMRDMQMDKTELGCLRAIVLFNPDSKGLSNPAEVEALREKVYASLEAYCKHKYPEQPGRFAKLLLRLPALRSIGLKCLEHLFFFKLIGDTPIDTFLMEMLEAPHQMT
# Excerpt: Since we had previously shown that the beneficial effects of the compounds of the invention are independent of glucocorticoid receptor (GR) activation, we set forth to investigate if they might exert their actions through activation of liver X receptors (LXR). For this purpose we used cultured cells transiently transfected with LXR-alpha, the retinoid X receptor (RXR) and a LXR response element-luciferase reporter (LRE-LUC). A. Human embryonic kidney cells (HEK293T; 5×10^5 cells/well) were cultured in DMEM medium supplemented with 10% (v/v) fetal bovine serum, 100 ug/ml of streptomycin, 100 IU/ml of penicillin and 2 mM glutamine. For the transient transfections, the cell cultures were added with plasmids carrying LXR-alpha (pLXR-alpha; 0.6 ug), the retinoid X receptor (pRXR; 0.2 ug), a LXR response element-luciferase reporter (pRE-LUC; 0.7 ug) and beta-galactosidase gene (pRSV-LacZ; 0.6 ug) as a transfection control, using Lipofectamine 2000 (Invitrogen). […] Compounds III to VI are […] analogs bearing a fluorine atom at C-6. To assess LXR-alpha activation, at the end of the incubation period luciferase activity was measured by use of a luciferase assay system (Promega). The results of three independent assays, carried out in duplicate for each condition, are reported.
# SRBEP-1 = SRBEP-1 expression in HepG2 cells (real time PCR); format: cell-based, human; conditions: 1 uM, 3 uM and 10 uM, 6 h
# Protocol: (§1) The cells were incubated for 6 h in the presence of either Compound I (10 uM), or Compound II (10 uM), or the commercial LXR agonist GW3965 (1 uM), or Vehicle [DMSO, 0.1% (v/v)]). To obtain RNA, at the end of the incubation the cells were collected by centrifugation at 1,000 rpm for 2 min, washed with phosphate buffered saline, and lysed in 300 ul TRIZOL (Invitrogen). RNA samples were suspended in ul of RNAse free water, and their concentration determined (NanoDrop spectrophotometer). The ratio of the absorbance at 260 and 280 nm was used to assess RNA purity of an RNA preparation, with a value of 1.8-2.0 indicating pure RNA. To obtain cDNA, 1 ug of total RNA was denatured by incubating for 5 min at 70° C., before the addition of a mixture containing 0.5 ug oligo-dT primers and 25 ng/ml of random primers (Invitrogen), 1.0 mM dNTPs (Invitrogen), and 200 U M-MLV reverse transcriptase (Promega); after this the mixture was retrotranscribed at 37° C. for 60 min, followed by an incubation at 95° C. for 5 min to inactivate the enzyme. For the real time PCR amplification (Stratagene Thermal Cycler), cDNA samples were diluted 1/5 to 1/10 depending on the target amplification product. Calibration curves were obtained by use of eight successive 1:2 sample dilutions. Amplifications were carried out in a 25 ul final volume (5 ul cDNA sample plus 20 ul of reaction mixture) in the presence of either 3, 4 or 5 mM MgCl2 (depending on the amplified sequence), 0.25 mM dNTPs (Invitrogen), 1.25 U Taq polymerase (Invitrogen), 1 μM of the specific primers according to the target amplification sequence, and 0.025 μl SYBR Green (Roche). Melting curves were used to assess the specificity of the amplification products. […]
# TNF-alpha = TNF-alpha expression in UV-irradiated HaCaT cells (real time PCR); format: cell-based, human; conditions: 10 uM, 24 h after UV (254 nm, 15 J/m^2), normalized to GAPDH
# Protocol: HaCaT cells—a human immortalized keratinocyte cell line—were exposed to 15 J/m^2 UVB (254 nm) irradiation. Twenty four hours after irradiation, the cells were harvested and RNA isolated to assess the expression of LXR-alpha, LXR-beta, ABCA1, TNF-alpha, IL-6, and IL-8 genes. HaCaT cells were cultured in DMEM supplemented with 10% (v/v) fetal bovine serum, penicillin (100 U/mL), streptomycin ([…]) and glutamine (2 mM). […] The expressions of ABCA1, TNF-alpha, IL-6, IL-8, LXR-alpha, and LXR-beta were normalized according to glyceraldehyde-3-phosphate dehydrogenase (GAPDH) expression. The results of three independent assays, carried out in duplicate for each condition, are reported.
# [2] = system: fatty acid synthase (FAS or FASN); assay: FASN expression in HepG2 cells (real time PCR); format: cell-based, human; conditions: 1 uM, 3 uM and 10 uM, 6 h
# Protocol: as §1
# LXR-alpha [3] = biological target: T1, LXR-alpha; assay: LXR-alpha/RXR LRE-luciferase reporter in transfected BHK cells; format: cell-based; parameters: expressed in transfected cells; host or cells: BHK (baby hamster kidney cells), transient transfection as for HEK293T; conditions: for stimulation of LXR-alpha-driven gene transcription [(LXRE)-luciferase activity] / effect on LXR-alpha-driven expression of luciferase: 1 uM; for stimulation of LXR-alpha-driven gene transcription [(LXRE)-luciferase activity]: 3 uM and 10 uM; for effect on LXR-alpha-driven expression of luciferase / LXR-alpha-driven luciferase expression, increase compared with vehicle-treated cells: 18 h
# Protocol: B. Baby hamster kidney cells (5×10^5 cells/well) were cultured and transiently transfected as described above (Methods A.) for HEK293T cells. After transfection, the culture medium was replaced by serum-free DMEM, and the cells were incubated for 18 h with either Compound I or Compound II at 1×10^−6 M, 3×10^−6 M or 10^−5 M each, or vehicle [DMSO, 0.1% (v/v) final concentration], or GW3965 at a concentration of 10^−6 M. LXR-alpha activation was determined as described in A.
Compound,induction of ABCA1 expression (ABCA1),induction of LXR-alpha driven gene expression compared with GW3965 (1 uM) (LXR-alpha [1]),induction of SRBEP-1 expression (SRBEP-1),TNF-alpha expression versus DMSO-treated cells (TNF-alpha),induction of FASN expression [2],stimulation of LXR-alpha-driven gene transcription [(LXRE)-luciferase activity] (LXR-alpha [3]),effect on LXR-alpha-driven expression of luciferase (LXR-alpha [3]),"LXR-alpha-driven luciferase expression, increase compared with vehicle-treated cells (LXR-alpha [3]; 3 uM)","LXR-alpha-driven luciferase expression, increase compared with vehicle-treated cells (LXR-alpha [3]; 10 uM)"
"CC[C@@H](C(C)C)[C@H](O)[C@@H](O)[C@@H](C)[C@H]1CC[C@H]2[C@@H]3CCC4=CC(=O)CC[C@]4(C)[C@H]3CC[C@]12C [Compound I, (22S,23S)-22,23-dihydroxystigmast-4-en-3-one]",did not induce,within the same range as that observed for GW3965,did not induce,significantly lower,did not induce,within the same concentration range as GW3965,no effect,3 fold,–
"CC[C@@H](C(C)C)[C@H](O)[C@@H](O)[C@@H](C)[C@H]1CC[C@H]2[C@@H]3CCC4=CC(=O)C=C[C@]4(C)[C@H]3CC[C@]12C [Compound II, (22S,23S)-22,23-dihydroxystigmasta-1,4-dien-3-one]",did not induce,within the same range as that observed for GW3965,did not induce,significantly lower,did not induce,within the same concentration range as GW3965,no effect,3 fold,3 fold
